From ChEMBL document CHEMBL1201862, “PubChem BioAssay data set” (2004) come the findings set out here.

Molecules are shown by their SMILES. The source made the active and inactive calls.

Assay [1] has as its target T1, Apoptotic protease-activating factor 1 (Homo sapiens, UniProt O14727).
T1 sequence (O14727 whole entry): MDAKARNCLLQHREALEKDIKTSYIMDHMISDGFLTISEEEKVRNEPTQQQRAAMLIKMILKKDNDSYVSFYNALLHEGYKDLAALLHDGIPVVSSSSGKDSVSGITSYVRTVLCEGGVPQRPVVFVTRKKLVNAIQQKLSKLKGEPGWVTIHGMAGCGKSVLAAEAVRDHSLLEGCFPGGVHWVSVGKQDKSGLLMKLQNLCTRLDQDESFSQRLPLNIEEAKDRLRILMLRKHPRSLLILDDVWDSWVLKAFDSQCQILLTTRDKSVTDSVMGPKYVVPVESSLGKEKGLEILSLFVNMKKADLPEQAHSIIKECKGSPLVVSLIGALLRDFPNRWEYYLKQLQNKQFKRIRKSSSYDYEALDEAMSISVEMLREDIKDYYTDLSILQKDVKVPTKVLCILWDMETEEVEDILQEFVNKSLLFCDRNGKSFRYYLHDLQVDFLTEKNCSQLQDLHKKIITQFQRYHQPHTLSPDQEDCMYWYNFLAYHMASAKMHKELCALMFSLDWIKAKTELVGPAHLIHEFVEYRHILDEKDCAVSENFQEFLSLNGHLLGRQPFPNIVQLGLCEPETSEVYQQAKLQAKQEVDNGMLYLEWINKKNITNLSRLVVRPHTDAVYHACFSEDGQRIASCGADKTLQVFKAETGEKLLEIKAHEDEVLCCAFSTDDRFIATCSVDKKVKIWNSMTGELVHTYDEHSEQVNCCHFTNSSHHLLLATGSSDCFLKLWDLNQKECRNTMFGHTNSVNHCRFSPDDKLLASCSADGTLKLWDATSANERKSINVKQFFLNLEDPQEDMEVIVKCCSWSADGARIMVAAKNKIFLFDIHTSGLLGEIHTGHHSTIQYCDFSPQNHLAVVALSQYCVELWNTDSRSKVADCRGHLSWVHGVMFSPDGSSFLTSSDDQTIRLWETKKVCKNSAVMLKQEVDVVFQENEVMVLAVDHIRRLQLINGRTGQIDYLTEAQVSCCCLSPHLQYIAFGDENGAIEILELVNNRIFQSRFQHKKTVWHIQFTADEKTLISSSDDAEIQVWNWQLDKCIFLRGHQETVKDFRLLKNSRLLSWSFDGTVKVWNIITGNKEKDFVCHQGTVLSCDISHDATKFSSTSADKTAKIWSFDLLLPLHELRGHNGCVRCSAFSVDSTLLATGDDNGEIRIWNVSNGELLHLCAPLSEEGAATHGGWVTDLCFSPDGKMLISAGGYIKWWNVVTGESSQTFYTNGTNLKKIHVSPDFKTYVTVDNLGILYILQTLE
Put plainly: SAR analysis of small molecule inhibitors of Apaf-1 in a Fluorescent assay. It is filed as functional. Conditions: read-out: IC50_Mean.

In assay [2] the target is Beta Lactamase (Pseudomonas aeruginosa, UniProt Q932Y6).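 Note: confirmatory high-throughput screen measuring VIM-2 metallo-beta-lactamase inhibition by epi-absorbance in dose response.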
Chain of Beta Lactamase (Q932Y6 whole entry): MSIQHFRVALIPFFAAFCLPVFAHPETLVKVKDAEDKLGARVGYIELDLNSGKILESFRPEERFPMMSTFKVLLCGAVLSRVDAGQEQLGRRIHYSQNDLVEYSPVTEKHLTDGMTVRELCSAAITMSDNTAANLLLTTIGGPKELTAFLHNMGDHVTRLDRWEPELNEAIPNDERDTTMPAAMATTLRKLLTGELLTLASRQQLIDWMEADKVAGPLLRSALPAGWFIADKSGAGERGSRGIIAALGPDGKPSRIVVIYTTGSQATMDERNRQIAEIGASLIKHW
Assay [3] has as its target T1, Apoptotic protease-activating factor 1. It is filed as functional.
For assay [4], the target named is E3 ubiquitin-protein ligase XIAP (Homo sapiens, UniProt P98170). Nature of the assay: Counter Screen using XIAP-Bir3 for Chemical Antagonists of Bir1/2 domains of IAP-family anti-apoptotic proteins. [Related pubchem assays (depositor defined):AID1018, AID1449, AID1514, AID1638, AID1749, AID1750, AID488957, AID488963]. For orientation: Counterscreens check selectivity or assay interference.
Chain of E3 ubiquitin-protein ligase XIAP (P98170 whole entry): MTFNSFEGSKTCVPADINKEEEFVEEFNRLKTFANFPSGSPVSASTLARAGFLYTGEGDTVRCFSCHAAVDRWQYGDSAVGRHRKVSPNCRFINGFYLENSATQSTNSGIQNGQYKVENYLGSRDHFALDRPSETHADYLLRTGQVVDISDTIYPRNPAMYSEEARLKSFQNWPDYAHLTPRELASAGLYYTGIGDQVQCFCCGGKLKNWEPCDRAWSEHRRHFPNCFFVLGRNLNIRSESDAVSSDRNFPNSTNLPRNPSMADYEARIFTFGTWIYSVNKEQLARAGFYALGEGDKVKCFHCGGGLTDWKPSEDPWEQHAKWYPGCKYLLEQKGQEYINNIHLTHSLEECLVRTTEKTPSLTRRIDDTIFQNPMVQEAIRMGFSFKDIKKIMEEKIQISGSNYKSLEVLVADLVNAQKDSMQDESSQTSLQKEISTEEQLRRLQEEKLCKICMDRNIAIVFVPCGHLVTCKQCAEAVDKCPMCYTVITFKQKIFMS

Assay [5] addresses T2, Ubiquitin-conjugating enzyme E2 N (Homo sapiens, UniProt P61088).
T2 sequence (P61088 whole entry): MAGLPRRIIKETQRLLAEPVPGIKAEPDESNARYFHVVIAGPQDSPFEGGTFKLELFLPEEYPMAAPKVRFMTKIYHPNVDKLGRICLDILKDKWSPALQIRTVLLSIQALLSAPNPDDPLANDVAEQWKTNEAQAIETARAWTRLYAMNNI
It is filed as functional.

In assay [6] the target is T2, Ubiquitin-conjugating enzyme E2 N. It is filed as functional. The source holds these as a separate data set.
Assay [7] deals with T3, Bcl-2-related protein A1 (Mus musculus, UniProt Q07440).
T3 sequence (Q07440 whole entry): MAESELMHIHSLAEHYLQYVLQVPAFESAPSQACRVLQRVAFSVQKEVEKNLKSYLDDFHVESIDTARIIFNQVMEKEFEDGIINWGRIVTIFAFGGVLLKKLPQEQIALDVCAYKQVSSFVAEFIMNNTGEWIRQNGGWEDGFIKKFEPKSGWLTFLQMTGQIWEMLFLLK
It is filed as functional.

The target of assay [8] is Beta-lactamase (Pseudomonas aeruginosa, UniProt Q79MP6).
Chain of Beta-lactamase (Pseudomonas aeruginosa, UniProt Q79MP6) (Q79MP6 whole entry): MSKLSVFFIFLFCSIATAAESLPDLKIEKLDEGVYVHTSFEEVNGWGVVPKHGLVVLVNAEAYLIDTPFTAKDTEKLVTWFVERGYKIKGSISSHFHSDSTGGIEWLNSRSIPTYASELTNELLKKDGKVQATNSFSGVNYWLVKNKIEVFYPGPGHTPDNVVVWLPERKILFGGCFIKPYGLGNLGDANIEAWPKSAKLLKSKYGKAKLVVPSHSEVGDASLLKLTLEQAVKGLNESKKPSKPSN
Assay [9] has as its target Beta-lactamase (Salmonella choleraesuis (strain SC-B67), UniProt Q5J463).
The target of assay [10] is T1, Apoptotic protease-activating factor 1. Nature of the assay: SAR analysis of small molecule Activators of Apaf-1 in a Fluorescent assay - set 2. Conditions: read-out: EC50_Mean. It is filed as functional.
Assay [11] can be described thus: SAR analysis of small molecule activators of Apaf-1 using a LZ-Caspase-9/Caspase-3 Fluorescent Selectivity assay - Set 2. It counts as functional. Conditions: read-out: EC50_Mean.
Assay [12] has as its target Glycogen synthase kinase-3 beta (Homo sapiens, UniProt P49841). Put plainly: GSK3beta kinase inhibitors, dose response, biochemical, microfluidics, dry powder samples, set 2 (AID 623989). It counts as functional.
Assay [13] has as its target Glycogen synthase kinase-3 alpha (Homo sapiens, UniProt P49840). Nature of the assay: human GSK3 alpha kinase inhibition, dose response, selectivity assay for GSK3beta inhibitor project, biochemical, microfluidics, dry powder samples, set 2 (AID 623978). It counts as functional.
Assay [14] addresses T4, Neuropeptides B/W receptor type 1 (Homo sapiens, UniProt P48145). Nature of the assay: GPR7 antagonist potency, late-stage follow-up, cell-based, fluorescence, dose response, set 5 (AID 588566). It counts as functional.
In assay [15] the target is T5, Melanin-concentrating hormone receptor 1 (Homo sapiens, UniProt Q99705). Put plainly: Late-stage fluorescence-based counterscreen for antagonists of the G-protein coupled receptor 7 (GPR7): cell-based dose response assay to identify antagonists of the melanin-concentrating hormone receptor 1 (MCHR1) Set 5. It is filed as functional.
T5 sequence (Q99705 whole entry): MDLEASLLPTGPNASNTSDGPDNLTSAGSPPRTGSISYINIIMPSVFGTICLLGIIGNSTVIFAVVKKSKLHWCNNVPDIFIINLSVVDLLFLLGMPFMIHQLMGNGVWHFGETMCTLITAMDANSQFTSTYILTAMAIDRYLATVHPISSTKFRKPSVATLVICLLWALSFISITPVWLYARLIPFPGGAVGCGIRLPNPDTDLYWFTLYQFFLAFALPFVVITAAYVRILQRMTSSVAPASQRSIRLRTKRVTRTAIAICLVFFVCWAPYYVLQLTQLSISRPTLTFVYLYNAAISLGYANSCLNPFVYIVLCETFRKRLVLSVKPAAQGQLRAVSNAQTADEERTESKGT
Assay [16] in a line: Vero cell cytotoxicity, dose response, cytotoxicity control for M. tuberculosis growth inhibitor project, Vero cells, purified and synthesized compounds, set 5 (AID 504909). The conditions noted are these: Mycobacterium tuberculosis. It is filed as functional.
Assay [17] can be described thus: Vero cell cytotoxicity, dose response, cytotoxicity control for M. tuberculosis growth inhibitor project, Vero cells, purified and synthesized compounds, set 4 (AID 504854). It is filed as functional. Conditions: Mycobacterium tuberculosis.
Assay [18] addresses T5, Melanin-concentrating hormone receptor 1. Nature of the assay: Late-stage fluorescence-based counterscreen for antagonists of the G-protein coupled receptor 7 (GPR7): cell-based dose response assay to identify antagonists of the melanin-concentrating hormone receptor 1 (MCHR1) Set 6. It is filed as functional.
Assay [19] concerns the target T4, Neuropeptides B/W receptor type 1. Nature of the assay: GPR7 antagonist potency, late-stage follow-up, cell-based, fluorescence, dose response, set 6 (AID 588583). It counts as functional.
The target of assay [20] is High affinity nerve growth factor receptor (Homo sapiens, UniProt P04629). It counts as functional.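 Note: NTRK1 tested as one member of a kinome-wide profiling panel.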
Chain of High affinity nerve growth factor receptor (P04629 whole entry): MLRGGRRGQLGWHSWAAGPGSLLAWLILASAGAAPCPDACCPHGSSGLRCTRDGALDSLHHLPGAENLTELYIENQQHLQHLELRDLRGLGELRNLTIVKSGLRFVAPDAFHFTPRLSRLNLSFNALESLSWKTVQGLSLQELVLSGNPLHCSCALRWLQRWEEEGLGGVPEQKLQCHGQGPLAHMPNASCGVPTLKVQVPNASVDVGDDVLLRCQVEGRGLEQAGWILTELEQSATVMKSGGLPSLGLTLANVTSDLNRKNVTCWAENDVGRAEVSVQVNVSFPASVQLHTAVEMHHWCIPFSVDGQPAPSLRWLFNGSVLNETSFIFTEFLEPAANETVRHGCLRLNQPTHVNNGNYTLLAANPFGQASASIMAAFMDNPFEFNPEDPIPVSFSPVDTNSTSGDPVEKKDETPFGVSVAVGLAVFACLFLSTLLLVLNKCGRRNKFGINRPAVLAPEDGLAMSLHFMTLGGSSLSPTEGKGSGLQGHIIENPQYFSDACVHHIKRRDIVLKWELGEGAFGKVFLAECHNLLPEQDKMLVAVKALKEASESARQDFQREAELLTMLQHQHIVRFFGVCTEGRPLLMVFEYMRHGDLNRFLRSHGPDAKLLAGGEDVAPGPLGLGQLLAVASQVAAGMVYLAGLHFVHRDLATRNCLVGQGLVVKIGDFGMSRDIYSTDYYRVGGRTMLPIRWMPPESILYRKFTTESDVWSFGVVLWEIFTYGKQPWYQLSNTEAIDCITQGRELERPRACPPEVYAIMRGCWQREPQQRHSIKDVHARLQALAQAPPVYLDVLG
For assay [21], the target named is Cyclin-dependent kinase 19 (Homo sapiens, UniProt Q9BWU1). Put plainly: Navigating the Kinome. Panel member name: CDC2L6. It counts as functional.
Chain of Cyclin-dependent kinase 19 (Q9BWU1 whole entry): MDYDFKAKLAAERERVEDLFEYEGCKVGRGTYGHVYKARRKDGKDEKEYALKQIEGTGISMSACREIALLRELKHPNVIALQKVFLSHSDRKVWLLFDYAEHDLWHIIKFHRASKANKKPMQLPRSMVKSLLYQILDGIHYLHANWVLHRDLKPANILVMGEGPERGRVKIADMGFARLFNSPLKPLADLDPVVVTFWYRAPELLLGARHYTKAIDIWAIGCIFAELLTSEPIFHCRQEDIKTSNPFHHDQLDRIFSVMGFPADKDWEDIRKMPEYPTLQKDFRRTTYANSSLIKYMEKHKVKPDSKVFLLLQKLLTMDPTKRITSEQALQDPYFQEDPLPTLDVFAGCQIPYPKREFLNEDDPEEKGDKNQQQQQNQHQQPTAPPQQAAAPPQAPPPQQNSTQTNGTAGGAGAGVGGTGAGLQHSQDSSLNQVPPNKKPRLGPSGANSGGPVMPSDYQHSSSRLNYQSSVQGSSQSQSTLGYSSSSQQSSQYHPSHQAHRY

T4 sequence (P48145 whole entry): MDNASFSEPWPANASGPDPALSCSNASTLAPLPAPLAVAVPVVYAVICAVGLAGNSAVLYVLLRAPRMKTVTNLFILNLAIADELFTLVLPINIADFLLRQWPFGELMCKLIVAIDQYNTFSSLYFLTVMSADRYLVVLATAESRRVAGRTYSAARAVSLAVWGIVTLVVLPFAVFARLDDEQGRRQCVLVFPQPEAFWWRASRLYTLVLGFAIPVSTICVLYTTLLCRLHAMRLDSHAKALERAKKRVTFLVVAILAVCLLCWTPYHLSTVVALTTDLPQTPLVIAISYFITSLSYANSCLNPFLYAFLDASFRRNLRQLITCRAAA
Chain of Glycogen synthase kinase-3 alpha (P49840 whole entry): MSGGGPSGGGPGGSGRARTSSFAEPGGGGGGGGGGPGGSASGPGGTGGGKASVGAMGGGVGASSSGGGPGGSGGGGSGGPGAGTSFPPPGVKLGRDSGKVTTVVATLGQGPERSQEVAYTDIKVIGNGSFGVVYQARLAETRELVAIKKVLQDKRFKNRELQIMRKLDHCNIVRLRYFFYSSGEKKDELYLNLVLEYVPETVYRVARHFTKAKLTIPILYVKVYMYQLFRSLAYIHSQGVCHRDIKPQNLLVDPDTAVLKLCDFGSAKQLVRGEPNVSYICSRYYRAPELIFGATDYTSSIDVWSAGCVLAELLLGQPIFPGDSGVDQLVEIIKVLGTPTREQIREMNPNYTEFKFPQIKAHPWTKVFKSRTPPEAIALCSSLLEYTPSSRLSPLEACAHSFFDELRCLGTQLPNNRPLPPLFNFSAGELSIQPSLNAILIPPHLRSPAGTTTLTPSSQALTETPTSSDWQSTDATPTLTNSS
Chain of Glycogen synthase kinase-3 beta (P49841 whole entry): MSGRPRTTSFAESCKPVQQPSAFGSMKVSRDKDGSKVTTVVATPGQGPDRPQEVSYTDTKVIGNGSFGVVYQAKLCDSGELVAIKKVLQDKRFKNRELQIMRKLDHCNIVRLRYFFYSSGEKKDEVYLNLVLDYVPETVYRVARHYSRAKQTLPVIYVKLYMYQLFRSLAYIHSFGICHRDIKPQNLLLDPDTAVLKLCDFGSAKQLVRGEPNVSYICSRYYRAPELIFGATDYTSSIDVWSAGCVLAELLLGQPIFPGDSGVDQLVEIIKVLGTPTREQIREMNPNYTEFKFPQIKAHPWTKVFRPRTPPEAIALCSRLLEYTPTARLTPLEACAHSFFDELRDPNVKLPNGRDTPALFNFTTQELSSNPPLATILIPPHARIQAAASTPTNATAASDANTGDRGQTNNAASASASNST
Chain of Beta-lactamase (Salmonella choleraesuis (strain SC-B67), UniProt Q5J463) (Q5J463 whole entry): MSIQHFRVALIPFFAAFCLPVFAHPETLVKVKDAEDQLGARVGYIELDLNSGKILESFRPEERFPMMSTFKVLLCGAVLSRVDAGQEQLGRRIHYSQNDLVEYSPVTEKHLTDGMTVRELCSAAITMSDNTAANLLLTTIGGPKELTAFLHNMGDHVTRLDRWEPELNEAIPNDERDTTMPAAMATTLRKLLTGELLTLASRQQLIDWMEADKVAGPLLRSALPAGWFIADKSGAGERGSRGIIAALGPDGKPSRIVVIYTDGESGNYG

Consider `CCN(CC)CCOC(=O)c1ccc(N/C=C(/C#N)c2nc(-c3cc4ccccc4oc3=O)cs2)cc1`, for which the IC50 in [1] was 3.09 µM (active); in [2], > 59.6 µM (inactive); in [3], 4.12 µM (active); in assay [4], > 20 µM (inactive); in assay [5] it was 3.74 µM (active); in assay [6] it was 3.5 µM (active). The IC50 is 0.55 µM (active) in assay [7], > 59.6 µM (inactive) in assay [8] and > 59.6 µM (inactive) in assay [9].
`O=C(O)C1CC(c2ccccc2Cl)=NO1` (stereo unspecified): the EC50 in assay [10] and in assay [11] was > 100 µM (inactive) throughout.
One may read the AC50 as the concentration giving half of the maximal activity seen. For the molecule `CCOc1ccccc1/C=N/NC(=O)c1nnn(-c2nonc2N)c1CN1CCCCCC1`, the AC50 in [12] was < 0.016 µM (active); in assay [13], 0.0219 µM (active).
As for `COc1ccc(Oc2c(Cl)c(C(=O)O)nn(-c3ccc(C(C)C)cc3)c2=O)cc1`, the IC50 in assay [14] and in [15] was > 20 µM (inactive) in each case.
What is called CC50 is the concentration that lowers cell viability or growth by half. For the molecule `Cc1ccc(NC(=O)CSc2nc3ccccc3c(=O)[nH]2)cc1Cl`, the CC50 in assay [16] and in assay [17] was > 100 µM (active) each time.
In the case of `N#CC(c1ccc(F)cc1Cl)c1c(Cl)cnn(Cc2cccc3ccccc23)c1=O` (stereo unspecified), the IC50 in assay [18] and in assay [19] was 1.71 µM (active) each time.
By Ki is commonly meant a measure of affinity in units of concentration, obtained from inhibition or displacement. Consider `O=C(Nc1cccc(C(F)(F)F)c1)Nc1cc(Cl)ccc1O`, for which the Ki in assay [20] is 10 µM (active); in assay [21] it was 20 µM (active).
